{
  "source": "patent US4708961A",
  "about": "“Acylindole derivatives and their use in pharmaceutical compositions” (priority 1983, dated 1987)",
  "key": {"[1]": {"system": "collagen induced platelet-aggregation (Platelet Rich Plasma)", "test": "Inhibition of platelet-aggregation (collagen induced, aggregometer, rat PRP)", "format": "cell-based, Wistar-strain male rats", "settings": "for IC50: same manner (collagen), male rats weighing 500-700 g; for Platelet Aggregation (%): control 58 ± 1", "procedure": "(2) Inhibition of platelet-aggregation\nGroups of 5 Wistar-strain male rats (weighing 250-300 g) were used for collection of blood from abdominal aorta in the presence of sodium citric acid under anesthesia with ether. The obtained material was centrifuged at 200×g for 8 minutes to give Platelet Rich Plasma (PRP) from the supernatant. Further centrifugation was carried out at 1500×g for 15 minutes to obtain Platelet Poor Plasma (PPP) from the supernatant.\nPlatelet-aggregation was measured by aggregometer. 5 μl of the solution of the examined compound was added to 450 μl of the above-mentioned PRP and incubated for 1 minute at 37° C., after that a coagulant was added thereto. Collagen was used as the coagulant (final concentration was 4 μg/ml). Test compound was dissolved in DMSO (dimethylsulfoxide).\nIn the same manner as indicated above using Wister strain male rats weighing 500-700 g, example of the results is shown in Table 2."}, "[2]": {"system": "ddy-strain male mice", "test": "Acute toxicity test", "format": "in vivo", "settings": "4000 mg/kg, orally administered, groups of 5 ddy-strain male mice fasted for 18 hours", "procedure": "4000 mg/kg of the compound of the invention were orally administered to groups of 5 ddy-strain male mice which were fasted for 18 hours."}, "[3]": {"settings": "300 μM, collagen 4 μg/ml, PRP of Wistar-strain male rats 250-300 g, 1 minute at 37° C."}, "[4]": {"settings": "Rattus norvegicus, Platelet, 1 min, 300 μM, collagen 4 μg/ml, PRP of Wistar-strain male rats 250-300 g, 1 minute at 37° C., read-out: Inhibition rate (%)"}},
  "data": [
    {"smiles": "O=C(c1ccc(OCC(O)CO)cc1)c1c[nH]c2ccccc12", "note": "(stereo not drawn) [compound 16, 3-[p-(2,3-dihydroxypropoxy)benzoyl]indole]", "values": [
      {"measurement": "IC50", "setting": "[1]; Rattus norvegicus, Platelet", "result": 61, "unit": "µM"}
    ]},
    {"smiles": "CC(=O)Oc1ccc(C(=O)c2cn(C(C)=O)c3ccccc23)cc1", "note": "[compound 7, 3-(p-acetoxybenzoyl)-N-acetylindole]", "values": [
      {"measurement": "mortality (none of the mice were died)", "setting": "[2]", "result": "none of the mice were died"},
      {"measurement": "Platelet Aggregation (%)", "setting": "[1]; [3]", "result": "7 ± 1", "unit": "%"},
      {"measurement": "inhibition at 300 µM", "setting": "[1]; [4]", "result": 88, "unit": "%"},
      {"measurement": "IC50", "setting": "[1]; Rattus norvegicus, Platelet", "result": 21, "unit": "µM"}
    ]},
    {"smiles": "COc1ccc(C(=O)c2cn(C(C)=O)c3ccccc23)cc1", "note": "[compound 5, 3-(p-methoxybenzoyl)-N-acetylindole]", "values": [
      {"measurement": "mortality (none of the mice were died)", "setting": "[2]", "result": "none of the mice were died"},
      {"measurement": "Platelet Aggregation (%)", "setting": "[1]; 200 μM, collagen 4 μg/ml, PRP of Wistar-strain male rats 250-300 g, 1 minute at 37° C.", "result": "33 ± 1", "unit": "%"},
      {"measurement": "inhibition at 200 µM", "setting": "[1]; Rattus norvegicus, Platelet, 1 min, 200 μM, collagen 4 μg/ml, PRP of Wistar-strain male rats 250-300 g, 1 minute at 37° C., read-out: Inhibition rate (%)", "result": 43, "unit": "%"},
      {"measurement": "IC50", "setting": "[1]; Rattus norvegicus, Platelet", "result": 29, "unit": "µM"}
    ]},
    {"smiles": "O=C(c1ccc(O)cc1)c1cn(CC(O)CO)c2ccccc12", "note": "(stereo not drawn) [compound 17, 3-(p-hydroxybenzoyl)-N-(2,3-dihydroxypropyl)indole]", "values": [
      {"measurement": "IC50", "setting": "[1]; Rattus norvegicus, Platelet", "result": 85, "unit": "µM"}
    ]},
    {"smiles": "O=C(c1ccccc1O)c1cn(CC(O)CO)c2ccccc12", "note": "(stereo not drawn) [compound 19, 3-(o-hydroxybenzoyl)-N-(2,3-dihydroxypropyl)indole]", "values": [
      {"measurement": "IC50", "setting": "[1]; Rattus norvegicus, Platelet", "result": 81, "unit": "µM"}
    ]},
    {"smiles": "COc1ccc2c(c1)c(CC(=O)O)c(C)n2C(=O)c1ccc(Cl)cc1", "note": "[Indomethacin, reference compound]", "values": [
      {"measurement": "IC50", "setting": "[1]; Rattus norvegicus, Platelet", "result": 27, "unit": "µM"}
    ]},
    {"smiles": "O=C(c1ccc(O)cc1)c1c[nH]c2ccccc12", "note": "[compound 3, 3-(p-hydroxybenzoyl)indole]", "values": [
      {"measurement": "mortality (none of the mice were died)", "setting": "[2]", "result": "none of the mice were died"},
      {"measurement": "Platelet Aggregation (%)", "setting": "[1]; [3]", "result": "7 ± 3", "unit": "%"},
      {"measurement": "IC50", "setting": "[1]; Rattus norvegicus, Platelet", "result": 27, "unit": "µM"}
    ]},
    {"smiles": "CC(C)Oc1ccc(C(=O)c2c[nH]c3ccccc23)cc1", "note": "[compound 9, 3-(p-isopropoxybenzoyl)indole]", "values": [
      {"measurement": "mortality (none of the mice were died)", "setting": "[2]", "result": "none of the mice were died"},
      {"measurement": "Platelet Aggregation (%)", "setting": "[1]; [3]", "result": "8 ± 3", "unit": "%"}
    ]},
    {"smiles": "O=C(c1ccc(OCC(O)CO)cc1)c1cn(CC(O)CO)c2ccccc12", "note": "(stereo not drawn) [compound 18, 3-[p-(2,3-dihydroxypropoxy)benzoyl]-N-(2,3-dihydroxypropyl)indole]", "values": [
      {"measurement": "IC50", "setting": "[1]; Rattus norvegicus, Platelet", "result": 94, "unit": "µM"}
    ]},
    {"smiles": "COc1ccc(C(=O)c2cn(C)c3ccccc23)cc1", "note": "[compound 8, 3-(p-methoxybenzoyl)-N-methylindole]", "values": [
      {"measurement": "mortality (none of the mice were died)", "setting": "[2]", "result": "none of the mice were died"},
      {"measurement": "IC50", "setting": "[1]; Rattus norvegicus, Platelet", "result": 23, "unit": "µM"}
    ]},
    {"smiles": "O=C(c1ccc(OCCCO)cc1)c1c[nH]c2ccccc12", "note": "[compound 23, 3-[p-(3-hydroxypropoxy)benzoyl]indole]", "values": [
      {"measurement": "IC50", "setting": "[1]; Rattus norvegicus, Platelet", "result": 52, "unit": "µM"}
    ]},
    {"smiles": "O=C(c1ccccc1OCC(O)CO)c1cn(CC(O)CO)c2ccccc12", "note": "(stereo not drawn) [compound 20]", "values": [
      {"measurement": "IC50", "setting": "[1]; Rattus norvegicus, Platelet", "result": 108, "unit": "µM"}
    ]},
    {"smiles": "O=C(c1ccccc1O)c1c[nH]c2ccccc12", "note": "[compound 4, 3-(o-hydroxybenzoyl)indole]", "values": [
      {"measurement": "mortality (none of the mice were died)", "setting": "[2]", "result": "none of the mice were died"},
      {"measurement": "Platelet Aggregation (%)", "setting": "[1]; [3]", "result": "8 ± 5", "unit": "%"},
      {"measurement": "IC50", "setting": "[1]; Rattus norvegicus, Platelet", "result": 23, "unit": "µM"}
    ]},
    {"smiles": "COc1ccc(C(=O)c2c[nH]c3ccccc23)cc1", "note": "[compound 1, 3-(p-methoxybenzoyl)indole]", "values": [
      {"measurement": "mortality (none of the mice were died)", "setting": "[2]", "result": "none of the mice were died"},
      {"measurement": "Platelet Aggregation (%)", "setting": "[1]; [3]", "result": "22 ± 5", "unit": "%"},
      {"measurement": "inhibition at 300 µM", "setting": "[1]; [4]", "result": 62, "unit": "%"},
      {"measurement": "IC50", "setting": "[1]; Rattus norvegicus, Platelet", "result": 30, "unit": "µM"}
    ]},
    {"smiles": "O=C(c1ccc(OCCCO)cc1)c1cn(CCCO)c2ccccc12", "note": "[compound 24, 3-[p-(3-hydroxypropoxy)benzoyl]-N-(3-hydroxypropyl)indole]", "values": [
      {"measurement": "IC50", "setting": "[1]; Rattus norvegicus, Platelet", "result": 77, "unit": "µM"}
    ]},
    {"smiles": "COc1ccccc1C(=O)c1c[nH]c2ccccc12", "note": "[compound 2, 3-(o-methoxybenzoyl)indole]", "values": [
      {"measurement": "mortality (none of the mice were died)", "setting": "[2]", "result": "none of the mice were died"},
      {"measurement": "Platelet Aggregation (%)", "setting": "[1]; [3]", "result": "7 ± 4", "unit": "%"},
      {"measurement": "IC50", "setting": "[1]; Rattus norvegicus, Platelet", "result": 29, "unit": "µM"}
    ]},
    {"smiles": "COc1ccccc1C(=O)c1cn(C(C)=O)c2ccccc12", "note": "[compound 6, 3-(o-methoxybenzoyl)-N-acetylindole]", "values": [
      {"measurement": "mortality (none of the mice were died)", "setting": "[2]", "result": "none of the mice were died"},
      {"measurement": "Platelet Aggregation (%)", "setting": "[1]; [3]", "result": "9 ± 3", "unit": "%"},
      {"measurement": "inhibition at 300 µM", "setting": "[1]; [4]", "result": 84, "unit": "%"},
      {"measurement": "IC50", "setting": "[1]; Rattus norvegicus, Platelet", "result": 18, "unit": "µM"}
    ]},
    {"smiles": "CC(=O)Oc1ccccc1C(=O)O", "note": "[Aspirin, reference compound]", "values": [
      {"measurement": "Platelet Aggregation (%)", "setting": "[1]; [3]", "result": "23 ± 4", "unit": "%"},
      {"measurement": "inhibition at 300 µM", "setting": "[1]; [4]", "result": 60, "unit": "%"}
    ]}
  ]
}
